Literature values, collected in patent US20260199417A1, “OPHTHALMIC FORMULATION FOR TOPICAL USE CONTAINING HELENALIN, 11A,13-DIHYDRO HELENALIN AND FLAVONOIDS FROM ARNICA MONTANA EXTRACT AND SODIUM HYALURONATE, AND USE THEREOF BY HUMANS TO TREAT DRY EYE SYNDROME” (CENTRO DE RETINA MÉDICA Y QUIRÚRGICA, S.C., priority 2022, published 2026).

Tested on: NF kappa-B
Settings: T cells, B cells, and epithelial cells

Compound	Activation of NF kappa-B
C=C1C(=O)O[C@@H]2C[C@@H](C)[C@@H]3C=CC(=O)[C@@]3(C)[C@@H](O)[C@H]12 [helenalin]	inhibited
C[C@@H]1C[C@H]2OC(=O)[C@@H](C)[C@H]2[C@H](O)[C@]2(C)C(=O)C=C[C@@H]12 [11-α, 13-dihydrohelenalin]	inhibited
